Tests used:
human BAP-37 (hBAP-37) = molecular target: T1, human BAP-37 (hBAP-37) (Homo sapiens, UniProt Q99623); test: β-galactosidase yeast two hybrid (YTH) interaction assay; format: binding; settings: peptide as bait
T1 construct: expressed in transfected cells; prey cDNA from a library of the A5T4 reporter line (BJAB human B-cells)
Description: Potential binding partners for peptide CL08wt (SEQ ID NO: 1) were identified in a β-galactosidase yeast two-hybrid (YTH) assay using peptide CL08wt (SEQ ID NO: 1) as bait and a cDNA library constructed from the A5T4 reporter cell line as prey. Binding was assessed by β-galactosidase quantification using BetaFluor (Novagen) as a substrate. A negative interaction control (no cDNA fused downstream of the GAL4 activation domain sequence) was also run. A general outline of the YTH assay is illustrated in FIG. 6A. Following clustering, filtering to remove non-specific bait hits (e.g., GFP and BFP), singletons and clusters recognized by 10 or more cDNA baits (based upon historical YTH assays), 7 prey clones were identified as hits.
Potential targets identified in the YTH assay were reconfirmed as generally outlined in FIG. 7. The cDNA clones identified as hits in the YTH assay were purified and rescreened for interaction with the CL08wt peptide in YTH assay. The hit clones were also screened in a control assay for interaction with the BFP using a vector (pGBKT7) that contained only the BFP and not the CL08wt peptide. At this stage, 7 putative target clones remained.
The interaction of CL08wt (SEQ ID NO: 1) peptide and its mutants with the clones identified as potential targets for the peptide CL08wt (SEQ ID NO: 1) was then quantified in a β-galactosidase YTH assay. The YTH assay was performed in the manner described above. A general outline of this YTH assay is illustrated in FIG. 6B. For each clone tested, an interaction profile was developed by comparing the β-galactosidase activity of each mutant to that of the wild type peptide, as described above.
The interaction of these N, IOF and ROF mutants with different polypeptides encoded by the putative target clones were quantified using the YTH assay described above. […]

[1] = test system: IL-4 induced germline ε transcription (ε promoter reporter) in naïve A5T4 cells; test: Re-infection (DNA transfer) assay in naïve A5T4 reporter cells; also used for the functional profile of the mutants; format: cell-based, human; settings: for functional category of the mutant compared to CL08wt: % change in reporter ratio calculated after subtracting 1.0 from the individual ratios; for Reporter Ratio: Table 2, CL08wt and mutants screened in the A5T4 reporter line
Description: The ability of peptide CL08wt (SEQ ID NO: 1) to inhibit germline ε transcription was confirmed in naïve cells. Briefly, Phoenix cells were transfected with a retroviral vector encoding a BFP-CL08wt peptide fusion as described in WO 99/58663 and WO 97/27213. Naïve A5T4 cells were infected with the resultant virions and grown for 3 days. The infected cells were stimulated with IL-4 (60 U/mL) and, after 3 days, the cells were assessed by FACS for BFP and GFP. […] The BFP fluorescence data corresponding to the BFP^+ and BFP^− populations are provided in Panel A. The GFP fluorescence data corresponding to the BFP^+ and BFP^− populations are presented in Panel B. The reporter ratio for this purpose is determined as the geometric mean of the GFP fluorescence of the BFP^− population divided by the geometric mean of the GFP fluorescence of the BFP^+ population. The reporter ratio for the CL08 in this re-infection assay was 1.39.
A collection of CL08 mutants was generated by replacing single or double amino acid residues in the sequence of CL08wt (SEQ ID NO: 1) with a different amino acid, typically an alanine, as described in copending application Ser. No. 10/095,659, entitled Methods of Identifying Protein Targets, filed Mar. 8, 2002. The functional profiles for the mutants derived from CL08wt (SEQ ID NO: 1) was obtained by constructing and screening for activity in the A5T4 reporter cell line in the manner described above. The activity of each mutant at the germline ε promoter is reflected in the reporter ratio, as described above. The reporter ratios were the functional values that were used to develop the functional profiles.
TABLE 2 depicts the amino acid sequences (the mutations are underlined) of the mutants tested and the measured reporter ratios when screening in the A5T4 reporter line.
Comparison of the interaction and functional profiles was performed by categorizing the mutants of CL08 based on the functional and interaction assays. Based on the reporter ratio, described in panel C of FIG. 5, each mutant was categorized into one of four functional categories: (1) reduction of function (ROF); (2) loss of function (LOF); (3) increase of function (IOF) or (4) functionally neutral (N), as compared to the activity of the wild type peptide, here CL08wt. As mentioned previously, cells expressing a peptide that inhibits germline ε transcription have reporter ratios of ≧1.1. Cells expressing a loss of function mutant have a reporter ratio of […]. […] Functionally neutral mutants have reporter ratios that fall within ±50% of that of the CL08wt (SEQ ID NO: 1) peptide. The % increase or decrease in reporter ratio is calculated after subtracting 1.0 from the individual ratios. […]

[2] = test system: ST486 endogenous α promoter; test: TAQMAN assay of germline α transcription (selectivity); format: cell-based; settings: ST486 cells stimulated with TGF-β 40 ng/ml; average of 3 values; p=0.7371
Description: The assay was similar to that described in the immediately preceding section, except that ST486 cells (ATCC #CRL-1647) engineered to express the tetracycline-regulated transactivator were infected and the infected cells were stimulated with TGF-β (40 ng/ml; Peprotech). The primers and probe, which are specific for the transcription product driven by the ST486 endogenous α promoter, were as follows (the probe was labeled at the 5′-end with Fam and at the 3′-end with Tamra): […]

[3] = test system: IL-4 induced germline ε transcription (ε promoter reporter) in A5T4 reporter cells; test: A5T4 reporter line screening assay of library clones (HBEGF2a/GFP reporter, FACS); format: cell-based, human; settings: geometric mean GFP fluorescence, +IL-4/+Dox to +IL-4/−Dox populations; IL-4 60 U/mL, Dox 10 ng/ml; ≧1.1 = inhibition
Excerpt: Peptide CL08wt (SEQ ID NO: 1) was identified by screening a retroviral library of random peptide 20-mers for the ability to inhibit IL-4 induced germline ε transcription using the HBEGF2a/[…] dual reporter phenotypic screening system described in WO 01/31232. To construct the random library, A5T4 reporter cells (described in more detail below) were infected with an infectious retroviral library of random peptide 20-mers (prepared as described in WO 97/27213; see also WO 01/34806 at page 39, line 36 through page 40, line 19). The retroviral vector used includes a gene encoding blue fluorescent protein (BFP) fused upstream of the region encoding the random peptide via a linker region encoding an α-helical peptide linker (expression fusion product is referred to as “BFP-peptide”). Expression of the BFP-peptide product is controlled by a promoter sensitive to the tetracycline-regulated transactivator such that expression of the BFP-peptide is regulated by tetracycline (Tet) or doxycycline (Dox). See U.S. patent application Ser. No. 10/096,339 entitled “Methods and Compositions for Screening for Alter Cellular Phenotypes”, filed on Mar. 8, 2002. […]

T1 sequence (Q99623 whole entry): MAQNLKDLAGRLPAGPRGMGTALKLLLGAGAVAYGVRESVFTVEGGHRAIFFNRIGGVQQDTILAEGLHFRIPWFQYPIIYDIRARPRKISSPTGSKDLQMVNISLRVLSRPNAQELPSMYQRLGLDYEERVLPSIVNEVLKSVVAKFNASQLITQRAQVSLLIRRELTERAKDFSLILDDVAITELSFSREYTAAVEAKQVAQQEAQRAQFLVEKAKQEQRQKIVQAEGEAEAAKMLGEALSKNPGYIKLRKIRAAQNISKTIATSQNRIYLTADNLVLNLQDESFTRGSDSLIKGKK

Sequence	binding to human BAP-37 in yeast two hybrid interaction assay (human BAP-37 (hBAP-37))	functional category of the mutant compared to CL08wt [1]	Reporter Ratio [1]	endogenous α inhibition ratio [2]	Reporter Ratio [3]
TGAAVELQINRSIMHYISSP (peptide encoded by synthetic oligomer) [CL08VH, double alanine mutant of CL08wt]	bind	ROF (a reduction of function of mutant (ROF) shows a >50% decrease in reporter ratio)	–	–	–
TGVHVAAQINRSIMHYISSP (peptide encoded by synthetic oligomer) [CL08EL, double alanine mutant of CL08wt]	–	–	1.43	–	–
TGVHVELQIAASIMHYISSP (peptide encoded by synthetic oligomer) [CL08NR, double alanine mutant of CL08wt]	bind	IOF (An increase of function mutant (IOF) shows a >50% increase in reporter ratio)	–	–	–
TGVHVELQINRSIMAAISSP (peptide encoded by synthetic oligomer) [CL08HY, double alanine mutant of CL08wt]	–	–	1.54	–	–
TGVHVELQINRSIMHYISSP (peptide encoded by synthetic oligomer) [CL08wt, 20-mer peptide from a random retroviral library, expressed as BFP-peptide fusion]	bind	–	–	1.06	1.37
